Measured values: patent publication US20220031596A1, “ANTI-AGING AGENT AND ANTI-AGING METHOD” (priority 2018, published 2022)

Tests used:
Format in all cases: in vivo, human
[1] = system: estradiol concentration in the plasma; assay: Evaluation of estradiol secretion promoting effect (plasma estradiol, 24-week oral ingestion); settings: for estradiol concentration in the plasma, 0 weeks (before ingestion) / estradiol concentration in the plasma, 24 weeks (after ingestion) / estradiol concentration in the plasma, Change rate (24 weeks - 0 weeks): Low Dose Group (100 mg/daily, oral), mean±SD; for estradiol concentration in the plasma, 0 weeks (before ingestion): baseline
Procedure: In order to confirm a change in the estradiol quantity before and after ingestion of the nicotinamide mononucleotide, a test was conducted on healthy males and females aged 50 to 70 years.
As a sample of Working Example 7, a capsule formulation containing the nicotinamide mononucleotide and starch (100 mg of the nicotinamide mononucleotide in 4 capsules) (manufactured by SHINKOWA PHARMACEUTICAL Co., Ltd.) was used.
[…] In order to conduct appropriate evaluations, those who had been regularly using medical products for chronic diseases, those who had been consuming healthy foods that may affect clinical research, and those who were currently participating in other clinical researches or clinical trials or had participated in other clinical researches or clinical trials within the last three months were excluded from the subject for the evaluation. The capsule formulations were ingested at 10 am (between meals and fasting state) together with water or lukewarm water (oral administration).
Measurement of the estradiol quantity in the plasma was conducted by requesting the measurement to an external public organization according to a usual method. FIGS. 14a to 14c indicate transitions of the estradiol concentration (pg/ml) in the plasma for 24 weeks. FIG. 14a represents the transitions of the whole subjects; FIG. 14b represents the transitions of the male subjects; FIG. 14c represents the transitions of the female subjects. Further, FIGS. 15a to 15c indicate change rates (%) of the blood estradiol concentration up to 24 weeks when the nicotinamide mononucleotide was orally administered to the subjects for 24 weeks. FIG. 15a represents the change rates of the whole subjects; FIG. 15b represents the change rates of the male subjects; FIG. 15c represents the change rates of the female subjects. Further, Table 7 indicates the numerical values of the estradiol concentration (pg/ml) in the plasma before the ingestion of the nicotinamide mononucleotide (0 weeks) and after the ingestion of the nicotinamide mononucleotide (24 weeks). Note that the numerical values represent mean values±standard deviation.

[2] = system: adrenocorticotropic hormone concentration in the plasma; assay: Evaluation of adrenocorticotropic hormone secretion promoting effect (plasma ACTH, 24-week oral ingestion); settings: for adrenocorticotropic hormone concentration in the plasma, 0 weeks (before ingestion) / adrenocorticotropic hormone concentration in the plasma, 24 weeks (after ingestion) / adrenocorticotropic hormone concentration in the plasma, Change rate (24 weeks - 0 weeks): High Dose Group (200 mg/daily, oral), mean±SD; for adrenocorticotropic hormone concentration in the plasma, 0 weeks (before ingestion): baseline
Procedure: In order to confirm a change in the adrenocorticotropic hormone quantity before and after ingestion of the nicotinamide mononucleotide, a test was conducted on healthy males and females aged 50 to 70 years.
As a sample of Working Example 10, a capsule formulation containing the nicotinamide mononucleotide and starch (200 mg of the nicotinamide mononucleotide in 4 capsules) (manufactured by SHINKOWA PHARMACEUTICAL Co., Ltd.) was used.
(§1) Each group consisting of five healthy males and females aged 50 to 70 years in an unbiased age group ingested the above high dose capsule formulation once a day by 4 capsules for 24 weeks (total 10 subjects, 200 mg/daily ingestion). In order to conduct appropriate evaluations, those who had been regularly using medical products for chronic diseases, those who had been consuming healthy foods that may affect clinical research, and those who were currently participating in other clinical researches or clinical trials or had participated in other clinical researches or clinical trials within the last three months were excluded from the subject for the evaluation. The capsule formulations were ingested at 10 am (between meals and fasting state) together with water or lukewarm water (oral administration).
Measurement of the adrenocorticotropic hormone quantity in the plasma was conducted by requesting the measurement to an external public organization according to a usual method. FIGS. 20a to 20c indicate transitions of the adrenocorticotropic hormone concentration (pg/ml) in the plasma for 24 weeks. FIG. 20a represents the transitions of the whole subjects; FIG. 20b represents the transitions of the male subjects; FIG. 20c represents the transitions of the female subjects. Further, FIGS. 21a to 21c indicate change rates (%) of the blood adrenocorticotropic hormone concentration up to 24 weeks when the nicotinamide mononucleotide was orally administered to the subjects for 24 weeks. FIG. 21a represents the change rates of the whole subjects; FIG. 21b represents the change rates of the male subjects; FIG. 21c represents the change rates of the female subjects. Further, Table 10 indicates the numerical values of the adrenocorticotropic hormone concentration (pg/ml) in the plasma before the ingestion of the nicotinamide mononucleotide (0 weeks) and after the ingestion of the nicotinamide mononucleotide (24 weeks). Note that the numerical values represent mean values±standard deviation.

[3] = system: free thyroxine concentration in the plasma; assay: Evaluation of free thyroxine (T4) secretion promoting effect (plasma free thyroxine, 24-week oral ingestion); settings: for free thyroxine concentration in the plasma, 0 weeks (before ingestion) / free thyroxine concentration in the plasma, 24 weeks (after ingestion) / free thyroxine concentration in the plasma, Change rate (24 weeks - 0 weeks): High Dose Group (200 mg/daily, oral), mean±SD; for free thyroxine concentration in the plasma, 0 weeks (before ingestion): baseline
Procedure: In order to confirm a change in the free thyroxine quantity before and after ingestion of the nicotinamide mononucleotide, a test was conducted on healthy males and females aged 50 to 70 years.
As a sample of Working Example 5, a capsule formulation containing the nicotinamide mononucleotide and starch (200 mg of the nicotinamide mononucleotide in 4 capsules) (manufactured by SHINKOWA PHARMACEUTICAL Co., Ltd.) was used.
as §1
Measurement of the free thyroxine quantity in the plasma was conducted by requesting the measurement to an external public organization according to a usual method. FIGS. 10a to 10c indicate transitions of the free thyroxine concentration (ng/dl) in the plasma for 24 weeks. FIG. 10a represents the transitions of the whole subjects; FIG. 10b represents the transitions of the male subjects; FIG. 10c represents the transitions of the female subjects. Further, FIGS. 11a to 11c indicate change rates (%) of the blood free thyroxine concentration up to 24 weeks when the nicotinamide mononucleotide was orally administered to the subjects for 24 weeks. FIG. 11a represents the change rates of the whole subjects; FIG. 11b represents the change rates of the male subjects; FIG. 11c represents the change rates of the female subjects. Further, Table 5 indicates the numerical values of the free thyroxine concentration (ng/dl) in the plasma before the ingestion of the nicotinamide mononucleotide (0 weeks) and after the ingestion of the nicotinamide mononucleotide (24 weeks). Note that the numerical values represent mean values±standard deviation.

NC(=O)c1ccc[n+]([C@@H]2O[C@H](COP(=O)([O-])O)[C@@H](O)[C@H]2O)c1 [nicotinamide mononucleotide]
estradiol concentration in the plasma, 0 weeks (before ingestion) ([1]; Female): 10.0 ± 0.0 pg/mL
estradiol concentration in the plasma, 24 weeks (after ingestion) ([1]; Female): 40.8 ± 70.6 pg/mL
estradiol concentration in the plasma, Change rate (24 weeks - 0 weeks) ([1]; Female): 30.8 ± 70.6 pg/mL
estradiol concentration in the plasma, 0 weeks (before ingestion) ([1]; Male): 24.0 ± 9.4 pg/mL
estradiol concentration in the plasma, 24 weeks (after ingestion) ([1]; Male): 24.9 ± 7.7 pg/mL
estradiol concentration in the plasma, Change rate (24 weeks - 0 weeks) ([1]; Male): 0.9 ± 5.6 pg/mL
estradiol concentration in the plasma, 0 weeks (before ingestion) ([1]; Whole Subjects): 17.0 ± 9.7 pg/mL
estradiol concentration in the plasma, 24 weeks (after ingestion) ([1]; Whole Subjects): 32.9 ± 48.1 pg/mL
estradiol concentration in the plasma, Change rate (24 weeks - 0 weeks) ([1]; Whole Subjects): 15.9 ± 49.8 pg/mL
estradiol concentrations in the plasma, effect of ingestion (in words) ([1]; oral, 100 mg/daily, 24 weeks, FIGS. 14a-14c, 15a-15c): increased
adrenocorticotropic hormone concentration in the plasma, 0 weeks (before ingestion) ([2]; Female): 17.5 ± 7.0 pg/mL
adrenocorticotropic hormone concentration in the plasma, 24 weeks (after ingestion) ([2]; Female): 21.9 ± 14.2 pg/mL
adrenocorticotropic hormone concentration in the plasma, Change rate (24 weeks - 0 weeks) ([2]; Female): 4.4 ± 15.3 pg/mL
adrenocorticotropic hormone concentration in the plasma, 0 weeks (before ingestion) ([2]; Male): 24.4 ± 10.0 pg/mL
adrenocorticotropic hormone concentration in the plasma, 24 weeks (after ingestion) ([2]; Male): 35.7 ± 10.2 pg/mL
adrenocorticotropic hormone concentration in the plasma, Change rate (24 weeks - 0 weeks) ([2]; Male): 11.3 ± 4.6 pg/mL
adrenocorticotropic hormone concentration in the plasma, 0 weeks (before ingestion) ([2]; Whole Subjects): 20.9 ± 8.9 pg/mL
adrenocorticotropic hormone concentration in the plasma, 24 weeks (after ingestion) ([2]; Whole Subjects): 28.8 ± 13.7 pg/mL
adrenocorticotropic hormone concentration in the plasma, Change rate (24 weeks - 0 weeks) ([2]; Whole Subjects): 7.8 ± 11.2 pg/mL
adrenocorticotropic hormone concentrations in the plasma, effect of ingestion (in words) ([2]; oral, 200 mg/daily, 24 weeks, FIGS. 20a-20c, 21a-21c): increased
free thyroxine concentration in the plasma, 0 weeks (before ingestion) ([3]; Female): 1.10 ± 0.19 ng/dL
free thyroxine concentration in the plasma, 24 weeks (after ingestion) ([3]; Female): 1.13 ± 0.09 ng/dL
free thyroxine concentration in the plasma, Change rate (24 weeks - 0 weeks) ([3]; Female): 0.03 ± 012 ng/dL
free thyroxine concentration in the plasma, 0 weeks (before ingestion) ([3]; Male): 1.15 ± 0.19 ng/dL
free thyroxine concentration in the plasma, 24 weeks (after ingestion) ([3]; Male): 1.22 ± 0.17 ng/dL
free thyroxine concentration in the plasma, Change rate (24 weeks - 0 weeks) ([3]; Male): 0.07 ± 0.15 ng/dL
free thyroxine concentration in the plasma, 0 weeks (before ingestion) ([3]; Whole Subjects): 1.13 ± 0.18 ng/dL
free thyroxine concentration in the plasma, 24 weeks (after ingestion) ([3]; Whole Subjects): 1.18 ± 0.14 ng/dL
free thyroxine concentration in the plasma, Change rate (24 weeks - 0 weeks) ([3]; Whole Subjects): 0.05 ± 0.13 ng/dL
free thyroxine concentrations in the plasma, effect of ingestion (in words) ([3]; oral, 200 mg/daily, 24 weeks, FIGS. 10a-10c, 11a-11c): increased
